Results: patent EP0253314B1, “Peptidase and process for producing the same” (SUNTORY LIMITED, priority 1986, dated 1988)
Non-standard residues stand in square brackets, D forms with d. Residues, ends and D or L forms follow the SMILES beside them. *: point of attachment. Sta = CC(C)C[C@H](N)[C@@H](O)CC(=O)O; Isovaleryl = CC(C)CC(=O)*

What was measured:
[1] = test system: peptidase of the present invention; type: biochemical, Saccharomyces cerevisiae; set-up: key to Inhibition: - indicates that the reaction was not inhibited; conditions: for Inhibition: pH 4
[2] = test system: enzyme of the present invention; assay: Substrate specificity of enzyme (percentage of cleaved substrate by HPLC); type: biochemical, Saccharomyces cerevisiae; conditions: 24 hours at 30°C in 0.05 M acetate buffer (pH 4.0); DEAE-Sephacel fraction eluted with 0.2 M NaCl
α-MF = α-MF produced at a level of several µg/ml; reacted for 24 hours; prior-art culture activity; cited from earlier work

Compound: O=S(=O)(F)Cc1ccccc1 [PMSF, phenylmethylsulfonyl fluoride]
- Response to inhibitor (inhibition of the enzyme, in words) [1]: inhibited neither
- Inhibition [1]: -

Compound: Ser - Leu - Arg - Arg - Ser - Ser - Cys - Phe - Gly - Gly - Arg - Met - Asp - Arg - Ile - Gly - Ala - Gln - Ser - Gly - Leu - Gly - Cys - Asn - Ser - Phe - Arg - Tyr [α-hamp]
- % Cleavage [2]: 0%

Compound: CC(C)CC(=O)N[C@H](C(=O)N[C@H](C(=O)N[C@@H](CC(C)C)[C@@H](O)CC(=O)N[C@@H](C)C(=O)N[C@@H](CC(C)C)[C@@H](O)CC(=O)O)C(C)C)C(C)C [Pepstatin, pepstatin] (Isovaleryl-VV[Sta]A[Sta]-OH)
- Response to inhibitor (inhibition of the enzyme, in words) [1]: not inhibited
- Inhibition [1]: -

Compound: O=C(O)c1cc[c]([Hg][Cl])cc1 [PCMB, p-chloro-mercuribenzoic acid]
- Response to inhibitor (inhibition of the enzyme, in words) [1]: inhibited neither
- Inhibition [1]: -

Compound: O=C(O)CN(CCN(CC(=O)O)CC(=O)O)CC(=O)O [EDTA]
- Response to inhibitor (inhibition of the enzyme, in words) [1]: not inhibited
- Inhibition [1]: -

Compound: Ser - Glu - Glu - Pro - Pro - Ile - Ser - Leu - Asp - Leu - Thr - Phe - His - Leu - Leu - Arg - Glu - Val - Leu - Glu - Met - Ala - Arg - Ala - Glu - Gln - Leu - Ala - Gln - Gln - Ala - His - Ser - Asn - Arg - Lys - Leu - Met - Glu - Ile - Ile - NH2 [CRF]
- % Cleavage [2]: 0%

Compound: O=C(O)CI [monoiodoacetic acid]
- Response to inhibitor (inhibition of the enzyme, in words) [1]: inhibited neither
- Inhibition [1]: -*

Compound: CC(=O)N[C@@H](CC(C)C)C(=O)N[C@@H](CC(C)C)C(=O)N[C@H](C=O)CCCNC(=N)N [Leupeptin, leupeptin]
- Response to inhibitor (inhibition of the enzyme, in words) [1]: inhibited neither
- Inhibition [1]: -

Compound: C[C@@H](O)[C@H](N)C(=O)N[C@@H](CCCCN)C(=O)N1CCC[C@H]1C(=O)N[C@@H](CCCNC(=N)N)C(=O)O [tuftsin, Thr - Lys - Pro - Arg] (H-TKPR-OH)
- % Cleavage [2]: 0%

Compound: Trp - His - Trp - Leu - Gln - Leu - Lys - Pro - Gly - Gln - Pro - Met - Tyr [α-MF]
- % Cleavage [2]: not less than 90%
- α-MF cleaved (α-MF): about 50%

Compound: Cc1ccc(S(=O)(=O)N[C@@H](CCCCN)C(=O)CCl)cc1 [TLCK, tosyl - L - lysine chloromethyl ketone]
- Response to inhibitor (inhibition of the enzyme, in words) [1]: inhibited neither
- Inhibition [1]: -

Compound: pGlu - Leu - Tyr - Glu - Asn - Lys - Pro - Arg - Arg - Pro - Tyr - Ile - Leu [neurotensin]
- % Cleavage [2]: 0%

Compound: Trp - Gly - Gly - Phe - Leu - Arg - Arg - Ile - Arg - Pro - Lys - Leu - Lys - Trp - Asp - Asn - Gln [dynorphin]
- % Cleavage [2]: not less than 90%

Compound: Tyr - Gly - Gly - Phe - Met - Thr - Ser - Glu - Lys - Ser - Gln - Thr - Pro - Leu - Val - Thr - Leu [β-endorphin]
- % Cleavage [2]: 0%

Compound: Cys - Tyr - Ile - Gln - Asn - Cys - Pro - Leu - Gly - NH2 [oxytocin]
- % Cleavage [2]: 0%
